Test results taken from patent US20230012570A1, “BICYCLIC COMPOUND USED AS SELECTIVE ANDROGEN RECEPTOR MODULATOR” (MEDSHINE DISCOVERY INC., priority 2019, published 2023).

Target: T1, CYP1A2 (Homo sapiens, UniProt P05177)
T1 construct: Mixed human liver microsomes (HLM) were purchased from Corning Inc; tissue Corning Inc. or XenoTech, LLC. or other suppliers; host or cells: pooled human liver microsomes
T1 sequence (P05177 1-516): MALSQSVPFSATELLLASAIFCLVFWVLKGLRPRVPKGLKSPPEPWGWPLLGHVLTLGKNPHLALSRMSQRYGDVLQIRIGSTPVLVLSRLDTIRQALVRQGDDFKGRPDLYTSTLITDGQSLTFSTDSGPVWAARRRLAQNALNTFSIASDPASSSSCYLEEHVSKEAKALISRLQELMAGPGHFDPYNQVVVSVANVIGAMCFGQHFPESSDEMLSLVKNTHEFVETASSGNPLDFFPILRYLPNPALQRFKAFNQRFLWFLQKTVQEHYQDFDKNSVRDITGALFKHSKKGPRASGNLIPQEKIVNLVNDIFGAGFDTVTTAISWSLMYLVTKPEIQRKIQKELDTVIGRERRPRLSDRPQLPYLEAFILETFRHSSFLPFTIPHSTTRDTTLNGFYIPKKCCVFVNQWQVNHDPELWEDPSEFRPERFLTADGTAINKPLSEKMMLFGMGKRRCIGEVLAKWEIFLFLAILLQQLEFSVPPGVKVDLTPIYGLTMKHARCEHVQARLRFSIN
Assay: Human liver microsomal CYP inhibition experiment, CYP1A2
Format: in vitro ADME
Method: Experiment Embodiment 4: Human Liver Microsomal CYP Inhibition Experiment
The inhibitory effects of the test compound 3A and VK5211 on the activities of human liver microsomal cytochrome P450 isozymes (CYP1A2, CYP2C9, CYP2C19, CYP2D6 and CYP3A4) were determined.
Mixed human liver microsomes (HLM) were purchased from Corning Inc. (Steuben, New York, USA) or XenoTech, LLC. (Lenexa, Kans., USA) or other suppliers, and were stored at a temperature below −60° C. before use.
First, the test compound (10.0 mM) was gradient diluted to prepare working solution (100×final concentration), and the concentrations of the working solution were: 5.00, 1.50, 0.500, 0.150, 0.0500, 0.0150, 0.00500 mM, and a working solution of each positive inhibitor of P450 isozymes (CYP1A2, CYP2C9, CYP2C19, CYP2D6, and CYP3A4) and a specific substrate mixture thereof (5 in 1) were prepared at the same time; human liver microsomes stored in a refrigerator at a temperature lower than −60° C. were put on ice to thaw, and when all the human liver microsomes were dissolved, the microsomes were diluted with potassium phosphate buffer (PB) to prepare a working solution of a certain concentration (0.253 mg/mL). […] The concentration of metabolites produced by the probe substrate in the sample was determined by liquid chromatography-tandem mass spectrometry (LC-MS/MS) method. […]

N#Cc1ccc(N2CC3CC3C2C(O)C(F)(F)F)cc1Cl (single isomer, unassigned) [Compound 3A]
IC50: 29.3 µM
